Source: patent publication US20200308170A1, “KRAS G12C INHIBITORS” (Mirati Therapeutics, Inc., priority 2017, published 2020)
pIC50: −log10 of the molar value.

Target: T1, KRas G12C (Homo sapiens, UniProt P01116, C118S/C51S/C80L/G12C)
T1 construct: GDP-loaded K-Ras (1-169) G12C, C51S, C80L, C118S
Assay: KRas G12C Modification Assay (LCMS detection of covalent adduct)
Type: binding
Conditions: 5 μM concentration for 3 hours; LC/MS of intact protein; higher POC = higher degree of modification
Procedure: A 10 μL aliquot of each protein solution was then transferred to a 384 well microtiter plate. Initial compound stocks were generated at fifty times their desired final assay concentration in DMSO.
Exemplary compounds of Formula (II) were diluted 25-fold into K-Ras Assay Buffer to a final of two times their final concentration. A 10 μL aliquot of each diluted compound solution was then added to each of the protein solutions in the microtiter plate to initiate reaction. […] At each time point, the reactions were quenched with 20 μL of a 25 mM acetic acid solution. […] Once all reactions were quenched, the plates were heat sealed and the samples were injected into a LC/MS system for data acquisition.
Samples were injected in their liquid phase onto a C-3 reverse phase column to remove assay buffer and prepare the samples for mass spectrometer. The proteins were eluted from the column using an acetonitrile gradient and fed directly into the mass analyzer. Initial raw data analysis took place in Agilent MassHunter software immediately post data acquisition.
Raw data analysis of the intact protein was exclusively a deconvolution of the multiple charge states of each protein in solution using a maximum entropy deconvolution provided in Mass Hunter. To minimize complexity, only the data over limited mass ranges were considered for analysis, with a minimum of one Dalton mass step intervals. The heights of all masses identified during raw data analysis were exported to be further analyzed in Spotfire® data analysis software.
Final data analysis was a multistep process in the Spotfire® data analysis software package. Briefly, each protein mass was calculated as a percent of the total signal of that sample, that percentage was then normalized to the percentage of signal of the protein in the absence of reactive compounds. Those normalized signals were reported as normalized percent of control (POC). […] Key: “A”≤25% POC; “B”>25% POC−≤50% POC; “C”>50% POC and ND=not determined.

Q: Which “POC (normalized percent of control; degree of covalent modification of KRas G12C)” value does the source give for `CN(C)C/C=C(/F)C(=O)N1CCN(c2nc(OC[C@@H]3CCCN3C)nc3c2CCN(c2cccc4cccc(Cl)c24)C3)C[C@@H]1CC#N` [Example 32, 2-[(2S)-4-[7-(8-chloro-1-naphthyl)-2-[[(2S)-1-methylpyrrolidin-2-yl]methoxy]-6,8-dihydro-5H-pyrido[3,4-d]pyrimidin-4-yl]-1-[(E)-4-(dimethylamino)-2-fluoro-but-2-enoyl]piperazin-2-yl]acetonitrile] here?
A: C (“C”>50% POC)

Q: How did the “POC (normalized percent of control; degree of covalent modification of KRas G12C)” value turn out when `CN1CCC[C@H]1COc1nc2c(c(N3CCN(C(=O)/C=C/CF)[C@@H](CC#N)C3)n1)CCN(c1cccc3cccc(Cl)c13)C2` [Example 8, 2-[(2S)-4-[7-(8-chloro-1-naphthyl)-2-[[(2S)-1-methylpyrrolidin-2-yl]methoxy]-6,8-dihydro-5H-pyrido[3,4-d]pyrimidin-4-yl]-1-[(E)-4-fluorobut-2-enoyl]piperazin-2-yl]acetonitrile] was run?
A: C (“C”>50% POC)

Q: With `CN1CCC[C@H]1COc1nc2c(c(N3CCN(C(=O)C#CCO)[C@@H](CC#N)C3)n1)CCN(c1cccc3cccc(Cl)c13)C2` [Example 12, 2-[(2S)-4-[7-(8-chloro-1-naphthyl)-2-[[(2S)-1-methylpyrrolidin-2-yl]methoxy]-6,8-dihydro-5H-pyrido[3,4-d]pyrimidin-4-yl]-1-(4-hydroxybut-2-ynoyl)piperazin-2-yl]acetonitrile] as the compound, how does the “POC (normalized percent of control; degree of covalent modification of KRas G12C)” value read?
A: C (“C”>50% POC)

Q: `CN1CCC[C@H]1COc1nc2c(c(N3CCN(C(=O)/C=C/CN4CC(F)C4)[C@@H](CC#N)C3)n1)CCN(c1cccc3cccc(Cl)c13)C2` [Example 10, 2-[(2S)-4-[7-(8-chloro-1-naphthyl)-2-[[(2S)-1-methylpyrrolidin-2-yl]methoxy]-6,8-dihydro-5H-pyrido[3,4-d]pyrimidin-4-yl]-1-[(E)-4-(3-fluoroazetidin-1-yl)but-2-enoyl]piperazin-2-yl]acetonitrile] was tested. Which “POC (normalized percent of control; degree of covalent modification of KRas G12C)” value did it give?
A: C (“C”>50% POC)

Q: With `CN(C/C=C/C(=O)N1CCN(c2nc(OC[C@@H]3CCCN3C)nc3c2CCN(c2cccc4cccc(Cl)c24)C3)C[C@@H]1CC#N)CC(F)(F)F` [Example 11, 2-[(2S)-4-[7-(8-chloro-1-naphthyl)-2-[[(2S)-1-methylpyrrolidin-2-yl]methoxy]-6,8-dihydro-5H-pyrido[3,4-d]pyrimidin-4-yl]-1-[(E)-4-[methyl(2,2,2-trifluoroethyl)amino]but-2-enoyl]piperazin-2-yl]acetonitrile] as the compound, how does the “POC (normalized percent of control; degree of covalent modification of KRas G12C)” value read?
A: C (“C”>50% POC)

Q: With `COC/C=C/C(=O)N1CCN(c2nc(OC[C@@H]3CCCN3C)nc3c2CCN(c2cccc4cccc(Cl)c24)C3)C[C@@H]1CC#N` [Example 53, 2-((S)-4-(7-(8-chloronaphthalen-1-yl)-2-(((S)-1-methylpyrrolidin-2-yl)methoxy)-5,6,7,8-tetrahydropyrido[3,4-d]pyrimidin-4-yl)-1-((E)-4-methoxybut-2-enoyl)piperazin-2-yl)acetonitrile] as the compound, how does the “POC (normalized percent of control; degree of covalent modification of KRas G12C)” value read?
A: C (“C”>50% POC)

Q: How did the “POC (normalized percent of control; degree of covalent modification of KRas G12C)” value turn out when `C=C(C(=O)N1CCN(c2nc(OC[C@@H]3CCCN3C)nc3c2CCN(c2cccc4cccc(Cl)c24)C3)C[C@@H]1CC#N)C(F)(F)F` [Example 33, 2-[(2S)-4-[7-(8-chloro-1-naphthyl)-2-[[(2S)-1-methylpyrrolidin-2-yl]methoxy]-6,8-dihydro-5H-pyrido[3,4-d]pyrimidin-4-yl]-1-[2-(trifluoromethyl)prop-2-enoyl]piperazin-2-yl]acetonitrile] was run?
A: C (“C”>50% POC)

Q: For `C=C(CO)C(=O)N1CCN(c2nc(OC[C@@H]3CCCN3C)nc3c2CCN(c2cccc(C)c2C)C3)C[C@@H]1CC#N` [Example 17, 2-((S)-4-(7-(2,3-dimethylphenyl)-2-(((S)-1-methylpyrrolidin-2-yl)methoxy)-5,6,7,8-tetrahydropyrido[3,4-d]pyrimidin-4-yl)-1-(2-(hydroxymethyl)acryloyl)piperazin-2-yl)acetonitrile], which “POC (normalized percent of control; degree of covalent modification of KRas G12C)” value is on record?
A: B (“B”>25% POC−≤50% POC)

Q: `Cc1cccc(N2CCc3c(nc(OC[C@@H]4CCCN4C)nc3N3CCN(C(=O)/C=C\Cl)[C@@H](CC#N)C3)C2)c1C` [Example 34, 2-((S)-1-((Z)-3-chloroacryloyl)-4-(7-(2,3-dimethylphenyl)-2-(((S)-1-methylpyrrolidin-2-yl)methoxy)-5,6,7,8-tetrahydropyrido[3,4-d]pyrimidin-4-yl)piperazin-2-yl)acetonitrile] was tested. Which “POC (normalized percent of control; degree of covalent modification of KRas G12C)” value did it give?
A: C (“C”>50% POC)

Q: For `CN1CCC[C@H]1COc1nc2c(c(N3CCN(C(=O)/C=C/C(F)(F)F)[C@@H](CC#N)C3)n1)CCN(c1cccc3cccc(Cl)c13)C2` [Example 19, 2-((S)-4-(7-(8-chloronaphthalen-1-yl)-2-(((S)-1-methylpyrrolidin-2-yl)methoxy)-5,6,7,8-tetrahydropyrido[3,4-d]pyrimidin-4-yl)-1-((E)-4,4,4-trifluorobut-2-enoyl)piperazin-2-yl)acetonitrile], which “POC (normalized percent of control; degree of covalent modification of KRas G12C)” value is on record?
A: C (“C”>50% POC)

Q: For `CN1CCC[C@H]1COc1nc2c(c(N3CCN(C(=O)/C=C/C(F)F)[C@@H](CC#N)C3)n1)CCN(c1cccc3cccc(Cl)c13)C2` [Example 13, 2-[(2S)-4-[7-(8-chloro-1-naphthyl)-2-[[(2S)-1-methylpyrrolidin-2-yl]methoxy]-6,8-dihydro-5H-pyrido[3,4-d]pyrimidin-4-yl]-1-[(E)-4,4-difluorobut-2-enoyl]piperazin-2-yl]acetonitrile], which “POC (normalized percent of control; degree of covalent modification of KRas G12C)” value is on record?
A: C (“C”>50% POC)

Q: With `CN1CCC[C@H]1COc1nc2c(c(N3CCN(C(=O)C#CCO)[C@@H](CC#N)C3)n1)CCN(c1cccc3ccccc13)C2` [Example 3, 2-((S)-1-(4-hydroxybut-2-ynoyl)-4-(2-(((S)-1-methylpyrrolidin-2-yl)methoxy)-7-(naphthalen-1-yl)-5,6,7,8-tetrahydropyrido[3,4-d]pyrimidin-4-yl)piperazin-2-yl)acetonitrile] as the compound, how does the “POC (normalized percent of control; degree of covalent modification of KRas G12C)” value read?
A: C (“C”>50% POC)

Q: How did the “POC (normalized percent of control; degree of covalent modification of KRas G12C)” value turn out when `COC/C=C/C(=O)N1CCN(c2nc(OC[C@@H]3CCCN3C)nc3c2CCN(c2cccc4cccc(C)c24)C3)C[C@@H]1CC#N` [Example 40, 2-((S)-1-((E)-4-methoxybut-2-enoyl)-4-(7-(8-methylnaphthalen-1-yl)-2-(((S)-1-methylpyrrolidin-2-yl)methoxy)-5,6,7,8-tetrahydropyrido[3,4-d]pyrimidin-4-yl)piperazin-2-yl)acetonitrile] was run?
A: C (“C”>50% POC)

Target: KRas G12C (Homo sapiens, UniProt P01116, G12C)
Assay: Inhibition of KRas G12C in NCI-H358 cells measured by phosphorylated ERK (Phospho-ERK)
Type: cell-based
Conditions: 3 hours, 4 parameter fit, read-out: IC50 (pERK(Thr202/Tyr204) signal normalized with GAPDH)
Procedure: Cells were plated in poly-D-Lysine coated 96-well plates at a concentration of 50,000 cells/well and allowed to attach for 8-12 hours. Diluted compounds were then added at a final concentration of 0.5% DMSO. After 3 hours, the medium was removed, 150 μL of 4% formaldehyde was added and the plates were incubated for 20 minutes. The plates were washed with PBS, and permeabilized using 150 μL of ice cold 100% methanol for 10 minutes. Non-specific antibody binding to the plates was blocked using 100 μL Licor Blocking Buffer (Li-Cor Biotechnology, Lincoln Nebr.) for 1 hour at room temperature. Positive control samples and samples lacking cells were parallel processed with test samples as standards.
The amount Phospho-ERK was determined using an antibody specific for the phosphorylated form of ERK and compared to the amount of GAPDH. […] The plates were incubated for 2 hours at room temperature. The plates were washed with PBS+0.05% Tween 20.
Secondary antibodies used to visualize primary antibodies were added as follows: Anti-rabbit-680 diluted 1:1000 and Anti-mouse-800 diluted 1:1000 in Licor Block+0.05% Tween 20 and incubated for 1 hour at room temperature. The plates were washed with PBS+0.05% Tween 20. A 100 μL aliquot of PBS was added to each well and the plates were read on a LICOR AERIUS plate reader.
The pERK(Thr202/Tyr204) signal was normalized with the GAPDH signal and percent of DMSO control values were calculated. IC50 values were generated using a 4 parameter fit of the dose response curve.

Q: `CN1CC(F)(F)C[C@H]1COc1nc2c(c(N3CCN(C(=O)/C=C/CN4CC(F)C4)[C@@H](CC#N)C3)n1)CCN(c1cccc3cccc(Cl)c13)C2` [Example 57, 2-((S)-4-(7-(8-chloronaphthalen-1-yl)-2-(((S)-4,4-difluoro-1-methylpyrrolidin-2-yl)methoxy)-5,6,7,8-tetrahydropyrido[3,4-d]pyrimidin-4-yl)-1-((E)-4-(3-fluoroazetidin-1-yl)but-2-enoyl)piperazin-2-yl)acetonitrile] was tested. Which pIC50 did it give?
A: 5.00 to 6.00

Q: `C=C(F)C(=O)N1CCN(c2nc(OCCN3CCCCCC3)nc3c2CCN(c2cccc4ccc(F)c(Cl)c24)C3)C[C@@H]1CC#N` [Example 165] was tested. Which pIC50 did it give?
A: 6.00 to 10.00

Q: How did the pIC50 turn out when `C=C(F)C(=O)N1CCN(c2nc(OCC(C)C(F)F)nc3c2CCN(c2cccc4ccc(F)c(Cl)c24)C3)C[C@@H]1CC#N` (stereo partly drawn) [Example 192] was run?
A: 5.00 to 6.00

Q: With `C=C(F)C(=O)N1CCN(c2nc(OCC3CCOC3)nc3c2CCN(c2cccc4ccc(F)c(Cl)c24)C3)C[C@@H]1CC#N` (stereo partly drawn) [Example 189] as the compound, how does the pIC50 read?
A: 5.00 to 6.00

Q: `C=C(F)C(=O)N1CCN(c2nc(OCC3COCCC34CN(C)C4)nc3c2CCN(c2cccc4ccc(F)c(Cl)c24)C3)C[C@@H]1CC#N` (stereo partly drawn) [Example 161] was tested. Which pIC50 did it give?
A: 6.00 to 10.00
